Experimental data from US12428406B2 (PMV Pharmaceuticals, Inc., priority 2019, dated 2025).

What follows are compounds tested against T1, p53 Y220C (Homo sapiens, UniProt P04637, Y220C) (assay: In vitro DNA binding activity assay (HTRF / TR-FRET): stabilization of p53 Y220C and increase of its DNA binding activity). Conditions: recombinant His-tagged p53 Y220C DNA binding domain (aa 94-312), biotin-labeled consensus DNA, incubated at 27° C. or 29° C. for 60 min.
T1 construct: The recombinant protein was a truncation mutant containing only amino acids 94-312 of p53; made in house; host or cells: E. coli
T1 sequence (P04637 94-312, change not shown): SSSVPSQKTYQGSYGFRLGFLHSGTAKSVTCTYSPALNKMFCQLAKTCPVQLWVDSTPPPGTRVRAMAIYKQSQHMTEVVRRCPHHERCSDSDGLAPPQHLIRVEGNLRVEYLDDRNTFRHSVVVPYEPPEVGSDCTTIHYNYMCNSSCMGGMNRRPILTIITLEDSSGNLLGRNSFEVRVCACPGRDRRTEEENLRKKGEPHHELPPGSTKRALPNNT
Type: biochemical
In short: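 E. coli His-p53 Y220C + biotin consensus DNA; anti-His-APC/SA-Eu TR-FRET. SC150 vs no-compound.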
In the case of CNS(=O)(=O)c1ccc(NCC#Cc2cc3c(N[C@H]4CC[C@H](N(C)C)CC4)cccc3n2CC(F)(F)F)c(OC)c1 [Compound 71A, 3-methoxy-N-methyl-4-{[3-(4-{[(1R,4R)-4-(dimethylamino)cyclohexyl]amino}-1-(2,2,2-trifluoroethyl)-1H-indol-2-yl)prop-2-yn-1-yl]amino}benzene-1-sulfonamide], the “SC150 (concentration of the compound required to increase the DNA binding activity by 50%)” value is reported as “+ (+ = 0 μM ≤ SC150 < 0.05 μM)”. With CNS(=O)(=O)c1ccc(NCC#Cc2cc3c(N[C@H]4CC[C@@H](N(C)C)CC4)cccc3n2CC(F)(F)F)c(OC)c1 [Compound 72A, 3-methoxy-N-methyl-4-{[3-(4-{[(1S,4S)-4-(dimethylamino)cyclohexyl]amino}-1-(2,2,2-trifluoroethyl)-1H-indol-2-yl)prop-2-yn-1-yl]amino}benzene-1-sulfonamide] the “SC150 (concentration of the compound required to increase the DNA binding activity by 50%)” value was “+ (+ = 0 μM ≤ SC150 < 0.05 μM)”. COc1cc(C(N)=O)ccc1NCC#Cc1cc2c(N[C@H]3CC[C@H](N(C)C)CC3)cccc2n1CC(F)(F)F [Compound 73A, 3-methoxy-4-{[3-(4-{[(1R,4R)-4-(dimethyl-amino)cyclohexyl]amino}-1-(2,2,2-trifluoroethyl)-1H-indol-2-yl)prop-2-yn-1-yl]amino}benzamide] was tested, and the “SC150 (concentration of the compound required to increase the DNA binding activity by 50%)” value was “+ (+ = 0 μM ≤ SC150 < 0.05 μM)”. With CNC(=O)c1ccc(NCC#Cc2cc3c(N[C@H]4CC[C@H](N(C)C)CC4)cccc3n2CC(F)(F)F)c(OC)c1 [Compound 74A, 3-methoxy-N-methyl-4-{[3-(4-{[(1R,4R)-4-(dimethylamino)cyclohexyl]amino}-1-(2,2,2-trifluoroethyl)-1H-indol-2-yl)prop-2-yn-1-yl]amino}benzamide] the “SC150 (concentration of the compound required to increase the DNA binding activity by 50%)” value was “+ (+ = 0 μM ≤ SC150 < 0.05 μM)”. For CNC(=O)c1ccc(NCC#Cc2cc3c(N[C@H]4CC[C@@H](N(C)C)CC4)cccc3n2CC(F)(F)F)c(OC)c1 [Compound 75A, 3-methoxy-N-methyl-4-{[3-(4-{[(1S,4S)-4-(dimethylamino)cyclohexyl]amino}-1-(2,2,2-trifluoroethyl)-1H-indol-2-yl)prop-2-yn-1-yl]amino}benzamide], the “SC150 (concentration of the compound required to increase the DNA binding activity by 50%)” value was “++ (++ = 0.05 μM ≤ SC150 < 0.1 μM)”. COc1cc(S(=O)(=O)N2CCN(C)CC2)ccc1NCC#Cc1cc2c(N[C@H]3CC[C@H](N(C)C)CC3)cccc2n1CC(F)(F)F [Compound 76A, (1R,4R)-N^4-{2-[3-({2-methoxy-4-[(4-methylpiperazin-1-yl)sulfonyl]phenyl}amino)prop-1-yn-1-yl]-1-(2,2,2-trifluoroethyl)-1H-indol-4-yl}-N^1,N^1-dimethyl-cyclohexane-1,4-diamine] was tested, and the “SC150 (concentration of the compound required to increase the DNA binding activity by 50%)” value was “+ (+ = 0 μM ≤ SC150 < 0.05 μM)”. With COc1cc(S(C)(=O)=O)ccc1NCC#Cc1cc2c(N[C@H]3CC[C@H](N(C)C)CC3)cccc2n1CC1CO1 (stereo partly drawn) [Compound 77A, (1R,4R)—N^4-(2-{3-[(4-methanesulfonyl-2-methoxyphenyl)amino]prop-1-yn-1-yl}-1-[(oxiran-2-yl)methyl]-1H-indol-4-yl)-N^1,N^1-dimethylcyclohexane-1,4-diamine] the “SC150 (concentration of the compound required to increase the DNA binding activity by 50%)” value was “++++ (++++ = 0.2 μM ≤ SC150 < 1 μM)”. C=C(C#N)Cn1c(C#CCNc2ccc(S(C)(=O)=O)cc2OC)cc2c(N[C@H]3CC[C@H](N(C)C)CC3)cccc21 [Compound 78A, 2-[(2-{3-[(4-methanesulfonyl-2-methoxyphenyl)amino]prop-1-yn-1-yl}-4-{[(1R,4R)-4-(dimethylamino)cyclohexyl]amino}-1H-indol-1-yl)methyl]prop-2-enenitrile] was tested, and the “SC150 (concentration of the compound required to increase the DNA binding activity by 50%)” value was “+++ (+++ = 0.1 μM ≤ SC150 < 0.2 μM)”. In the case of CN(C)[C@H]1CC[C@@H](Nc2cccc3c2cc(C#CCNc2ccc(S(C)(=O)=O)cc2O)n3CC(F)(F)F)CC1 [Compound 79A, 5-methanesulfonyl-2-{[3-(4-{[(1R,4R)-4-(dimethylamino)cyclohexyl]amino}-1-(2,2,2-trifluoroethyl)-1H-indol-2-yl)prop-2-yn-1-yl]amino}phenol], the “SC150 (concentration of the compound required to increase the DNA binding activity by 50%)” value is reported as “+ (+ = 0 μM ≤ SC150 < 0.05 μM)”. For CN(C)[C@H]1CC[C@H](Nc2cccc3c2cc(C#CCNc2ccc(S(C)(=O)=O)cc2O)n3CC(F)(F)F)CC1 [Compound 80A, 5-methanesulfonyl-2-{[3-(4-{[(1S,4S)-4-(dimethylamino)cyclohexyl]amino}-1-(2,2,2-trifluoroethyl)-1H-indol-2-yl)prop-2-yn-1-yl]amino}phenol], the “SC150 (concentration of the compound required to increase the DNA binding activity by 50%)” value was “+ (+ = 0 μM ≤ SC150 < 0.05 μM)”. For CN(C)[C@H]1CC[C@H](Nc2cccc3c2cc(C#CCNc2ccc(S(C)(=O)=O)cc2OCC#N)n3CC(F)(F)F)CC1 [Compound 81A, 2-(5-methanesulfonyl-2-{[3-(4-{[(1R,4R)-4-(dimethylamino)cyclohexyl]amino}-1-(2,2,2-trifluoro-ethyl)-1H-indol-2-yl)prop-2-yn-1-yl]amino}phenoxy)acetonitrile], the “SC150 (concentration of the compound required to increase the DNA binding activity by 50%)” value was “+ (+ = 0 μM ≤ SC150 < 0.05 μM)”. For CN(C)[C@H]1CC[C@@H](Nc2cccc3c2cc(C#CCNc2ccc(S(C)(=O)=O)cc2OCC#N)n3CC(F)(F)F)CC1 [Compound 82A, 2-(5-methanesulfonyl-2-{[3-(4-{[(1S,4S)-4-(dimethylamino)cyclohexyl]amino}-1-(2,2,2-trifluoro-ethyl)-1H-indol-2-yl)prop-2-yn-1-yl]amino}phenoxy)acetonitrile], the “SC150 (concentration of the compound required to increase the DNA binding activity by 50%)” value was “+ (+ = 0 μM ≤ SC150 < 0.05 μM)”. COc1cc(S(=O)(=O)NC(C)=O)ccc1NCC#Cc1cc2c(N[C@H]3CC[C@H](N(C)C)CC3)cccc2n1CC(F)(F)F [Compound 83A, N-(3-methoxy-4-{[3-(4-{[(1R,4R)-4-(dimethylamino)cyclohexyl]amino}-1-(2,2,2-trifluoroethyl)-1H-indol-2-yl)prop-2-yn-1-yl]amino}benzenesulfonyl)acetamide] was tested, and the “SC150 (concentration of the compound required to increase the DNA binding activity by 50%)” value was “+ (+ = 0 μM ≤ SC150 < 0.05 μM)”. COc1cc(S(=O)(=O)NC(C)=O)ccc1NCC#Cc1cc2c(N[C@H]3CC[C@@H](N(C)C)CC3)cccc2n1CC(F)(F)F [Compound 84A, N-(3-methoxy-4-{[3-(4-{[(1S,4S)-4-(dimethylamino)cyclohexyl]amino}-1-(2,2,2-trifluoroethyl)-1H-indol-2-yl)prop-2-yn-1-yl]amino}benzenesulfonyl)acetamide] was tested, and the “SC150 (concentration of the compound required to increase the DNA binding activity by 50%)” value was “++ (++ = 0.05 μM ≤ SC150 < 0.1 μM)”. For CCC(=O)NS(=O)(=O)c1ccc(NCC#Cc2cc3c(N[C@H]4CC[C@H](N(C)C)CC4)cccc3n2CC(F)(F)F)c(OC)c1 [Compound 85A, N-(3-methoxy-4-{[3-(4-{[(1R,4R)-4-(dimethylamino)cyclohexyl]amino}-1-(2,2,2-trifluoroethyl)-1H-indol-2-yl)prop-2-yn-1-yl]amino}benzenesulfonyl)propanamide], the “SC150 (concentration of the compound required to increase the DNA binding activity by 50%)” value was “+ (+ = 0 μM ≤ SC150 < 0.05 μM)”. With CCC(=O)NS(=O)(=O)c1ccc(NCC#Cc2cc3c(N[C@H]4CC[C@@H](N(C)C)CC4)cccc3n2CC(F)(F)F)c(OC)c1 [Compound 86A] the “SC150 (concentration of the compound required to increase the DNA binding activity by 50%)” value was “+ (+ = 0 μM ≤ SC150 < 0.05 μM)”. With CN(C)[C@H]1CC[C@H](Nc2cccc3c2cc(C#CCNc2ccc(S(C)(=O)=O)cc2OCCO)n3CC(F)(F)F)CC1 [Compound 87A, 2-(5-methanesulfonyl-2-{[3-(4-{[(1R,4R)-4-(dimethylamino)cyclohexyl]amino}-1-(2,2,2-trifluoroethyl)-1H-indol-2-yl)prop-2-yn-1-yl]amino}phenoxy)ethan-1-ol] the “SC150 (concentration of the compound required to increase the DNA binding activity by 50%)” value was “+ (+ = 0 μM ≤ SC150 < 0.05 μM)”. CN(C)[C@H]1CC[C@@H](Nc2cccc3c2cc(C#CCNc2ccc(S(C)(=O)=O)cc2OCCO)n3CC(F)(F)F)CC1 [Compound 88A, 2-(5-methanesulfonyl-2-{[3-(4-{[(1S,4S)-4-(dimethylamino)cyclohexyl]amino}-1-(2,2,2-trifluoro-ethyl)-1H-indol-2-yl)prop-2-yn-1-yl]amino}phenoxy)ethan-1-ol] was tested, and the “SC150 (concentration of the compound required to increase the DNA binding activity by 50%)” value was “+ (+ = 0 μM ≤ SC150 < 0.05 μM)”. In the case of COCCOc1cc(S(C)(=O)=O)ccc1NCC#Cc1cc2c(N[C@H]3CC[C@H](N(C)C)CC3)cccc2n1CC(F)(F)F [Compound 89A, (1R,4R)-N^4-[2-(3-{[4-methanesulfonyl-2-(2-methoxyethoxy)phenyl]amino}prop-1-yn-1-yl)-1-(2,2,2-trifluoro-ethyl)-1H-indol-4-yl]-N^1,N^1-dimethylcyclo-hexane-1,4-diamine], the “SC150 (concentration of the compound required to increase the DNA binding activity by 50%)” value is reported as “+ (+ = 0 μM ≤ SC150 < 0.05 μM)”. With CN(C)[C@H]1CC[C@H](Nc2cccc3c2cc(C#CCNc2ccc(S(C)(=O)=O)cc2OCC(F)(F)F)n3CC(F)(F)F)CC1 [Compound 92A, (1R,4R)-N^4-[2-(3-{[4-methanesulfonyl-2-(2,2,2-trifluoroethoxy)phenyl]amino}prop-1-yn-1-yl)-1-(2,2,2-trifluoro-ethyl)-1H-indol-4-yl]-N^1,N^1-dimethylcyclo-hexane-1,4-diamine] the “SC150 (concentration of the compound required to increase the DNA binding activity by 50%)” value was “+ (+ = 0 μM ≤ SC150 < 0.05 μM)”. With CN(C)[C@H]1CC[C@@H](Nc2cccc3c2cc(C#CCNc2ccc(S(C)(=O)=O)cc2OCC(F)(F)F)n3CC(F)(F)F)CC1 [Compound 93A, (1S,4S)-N^4-[2-(3-{[4-methanesulfonyl-2-(2,2,2-trifluoroethoxy)phenyl]amino}prop-1-yn-1-yl)-1-(2,2,2-trifluoro-ethyl)-1H-indol-4-yl]-N^1,N^1-dimethylcyclo-hexane-1,4-diamine] the “SC150 (concentration of the compound required to increase the DNA binding activity by 50%)” value was “+ (+ = 0 μM ≤ SC150 < 0.05 μM)”.
